Data taken from US7851437B2, “Drug conjugates and their use for treating cancer, an autoimmune disease or an infectious disease” (Seattle Genetics Inc., priority 2002, dated 2010).
*1 amine or outer side, *2 acyl side, *3 side chain or, on linkers, in order; H or OH if unused. Where a SMILES comes first, the peptide text is derived from it. [ ]: non-standard residue; d: D form. The star is where a group is joined. Dolaproine = CO[C@@H]([C@@H]1CCCN1)[C@@H](C)C(=O)O; Phenylenediamine(1,4) = c1cc(N[*:2])ccc1N[*:1]; Dil = CC[C@H](C)[C@H](NC)[C@@H](CC(=O)O)OC; NMe2Val = CC(C)[C@@H](C(=O)*)N(C)C; X1 = C[C@@H](N*)[C@@H](O)c1ccccc1; NMeV = CN[C@H](C(=O)O)C(C)C

System: H3396 human breast carcinoma cells (cBR96 antigen positive, cAC10 antigen negative)
Assay: In vitro cytotoxicity, Alamar Blue assay, H3396 cells
Type: cell-based
Conditions: exposure for 1 hour
Text: The cell lines used were H3396 human breast carcinoma (cBR96 antigen positive, cAC10 antigen negative), HCT-116 human colorectal carcinoma (cBR96 and cAC10 antigen negative), and Karpas human anaplastic large cell lymphoma (ALCL) (cBR96 antigen negative, cAC10 antigen positive). These cell lines are available from ATCC. CD30-positive Hodgkin's Disease (HD) cell line L540 and the ALCL cell line Karpas 299 were obtained from the Deutsche Sammlung von Mikroorganism and Zellkulturen GmbH (Braunschweig, Germany). L540cy, a derivative of the HD line L540 adapted to xenograft growth, was provided by Dr. Phil Thorpe (U of Texas Southwestern Medical Center, Dallas, Tex.). Cell lines were grown in RPMI-1640 media (Life Technologies Inc., Gaithersburg, Md.) supplemented with 10% fetal bovine serum.H3396 cells in RPMI containing 10% fetal bovine serum (referred to as medium) were plated in 96-well plates at approximately 3,000-10,000 cells/well and allowed to adhere overnight. The non-adherent Karpas cell line was plated out at approximately 10,000 cells/well at the initiation of the assay. Various concentrations of illustrative Compounds of the Invention in medium were added in triplicate, and after the times indicated IN FIGS. 1-7, the medium was removed, and the cells were washed with fresh medium three times. After a 96 hour incubation period at 37° C., Alamar Blue was added and cell viability was determined 4 hours later as described by Ahmed S A, Gogal R M Jr, Walsh J E., J. Immunol. Methods, 170, 211-224, 1994.

[1] = concentrations between 0.01 mM and 1.0 mM

## CC[C@H](C)[C@@H]([C@@H](CC(=O)N1CCC[C@H]1[C@H](OC)[C@@H](C)C(=O)N[C@H](C)[C@@H](O)c1ccccc1)OC)N(C)C(=O)[C@@H](NC(=O)[C@@H](NC)C(C)C)C(C)C [Compound 49] (H-[NMeV]V[Dil][Dolaproine]-X1)
[1]
  cytotoxicity (FIG. 1): substantially equal cytotoxicity

## CC[C@H](C)[C@@H]([C@@H](CC(=O)N1CCC[C@H]1[C@H](OC)[C@@H](C)C(=O)N[C@@H](Cc1ccccc1)C(=O)Nc1ccc(N)cc1)OC)N(C)C(=O)[C@@H](NC(=O)[C@H](C(C)C)N(C)C)C(C)C [Compound 53] (NMe2Val-V[Dil][Dolaproine]F-{Phenylenediamine(1,4)})
[1]
  cytotoxicity (FIG. 1): substantially equal cytotoxicity
Concentrations of up to 0.01 mM
  cytotoxicity (FIG. 1): more cytotoxic than Compound 49
